Experimental data taken from PMC9394284, “Discovery of Novel Dual Adenosine A2A and A1 Receptor Antagonists with 1H-Pyrazolo[3,4-d]pyrimidin-6-amine Core Scaffold as Anti-Parkinson’s Disease Agents” (Pharmaceuticals, 2022).

Legend:
hA2A receptors = molecular target: T1, hA2A receptors (Homo sapiens, UniProt P29274); test: radioligand binding to human A2A receptors, HEK-293 membranes
T1 construct: purchased PerkinElmer RBHA2AM
Description: The binding affinities of synthesized compounds to human A2A receptors (hA2AR) were measured by assessing competitive binding of ligands to radioligand […] using membrane preparations of human recombinant HEK-293 cells expressing human A2A receptors.
The radioligand-binding assays for adenosine receptors were performed at Eurofins Discovery Services (Panlabs, Taiwan). Briefly, stock solutions of the compounds were prepared in DMSO and further diluted with the incubation buffer to the desired concentration. Final DMSO concentrations in the assay were 1.0%. […] Nonspecific binding was estimated in the presence of 100 μM R(-)-PIA. Membranes were filtered and washed 3 times and the filters were counted to determine specifically bound [^3H]DPCPX. Chemical compounds were screened at 10 μM. […] Nonspecific binding was estimated in the presence of 50.0 μM NECA. […] Nonspecific binding was estimated in the presence of 100 μM NECA. Membranes were filtered and washed 3 times and the filters were counted to determine [^3H]MRS1754 specifically bound. […] Nonspecific binding was estimated in the presence of 1.0 μM IB-MECA.
IC50 values were determined by a nonlinear, least-squares regression analysis using MathIQ^TM (ID Business Solutions Ltd., Guildford, UK). […] The Hill coefficient (nH), which defines the slope of the competitive binding curve, was calculated using MathIQ^TM.

A3 receptors = molecular target: T2, A3 receptors (Homo sapiens, UniProt P0DMS8); test: radioligand binding to human A3 receptors, CHO-K1 membranes, [125I]AB-MECA
T2 construct: purchased PerkinElmer ES-012-M
T2 sequence (P0DMS8 1-318): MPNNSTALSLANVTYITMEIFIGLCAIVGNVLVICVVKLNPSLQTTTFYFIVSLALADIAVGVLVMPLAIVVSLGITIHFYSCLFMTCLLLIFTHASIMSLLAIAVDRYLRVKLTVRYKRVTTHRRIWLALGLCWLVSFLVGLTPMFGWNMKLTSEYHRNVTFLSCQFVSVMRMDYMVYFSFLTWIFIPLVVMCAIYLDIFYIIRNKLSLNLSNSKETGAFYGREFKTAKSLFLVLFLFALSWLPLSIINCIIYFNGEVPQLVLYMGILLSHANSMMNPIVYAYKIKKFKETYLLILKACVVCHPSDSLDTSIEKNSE
Description: The radioligand-binding assays for adenosine receptors were performed at Eurofins Discovery Services (Panlabs, Taiwan). Briefly, stock solutions of the compounds were prepared in DMSO and further diluted with the incubation buffer to the desired concentration. Final DMSO concentrations in the assay were 1.0%. For adenosine A1 screening, a 10 μg aliquots of membrane preparations from human recombinant CHO-K1 cells stably expressing A1 receptors (CHO-K1-hA1AR clone3, EPDST, R200510) were incubated with 1 nM [^3H]DPCPX in incubation buffer (20 mM HEPES, pH 7.4, 10 mM MgCl2, 100 mM NaCl 1.40 nM) for 90 min at 25 °C. Nonspecific binding was estimated in the presence of 100 μM R(-)-PIA. Membranes were filtered and washed 3 times and the filters were counted to determine specifically bound [^3H]DPCPX. Chemical compounds were screened at 10 μM. For A2A screening, membrane preparations from human recombinant HEK-293 cells stably expressing A2A receptors (PerkinElmer, RBHA2AM) were incubated with 0.05 μM [^3H]CGS-21680 in incubation buffer (50 mM Tris-HCl, pH 7.4, 10 mM MgCl2, 1 mM EDTA, 2 U/mL Adenosine Deaminase) for 90 min at 25 °C. Nonspecific binding was estimated in the presence of 50.0 μM NECA. Membranes were filtered and washed 3 times and the filters were counted to determine [^3H]CGS-21680 specifically bound. […] Membranes were filtered and washed 3 times and the filters were counted to determine [^3H]MRS1754 specifically bound. […]
IC50 values were determined by a nonlinear, least-squares regression analysis using MathIQ^TM (ID Business Solutions Ltd., Guildford, UK). Where inhibition constants (Ki) were presented, the Ki values were calculated using Cheng and Prusoff equation [18] using the observed IC50 of the compound, the concentration of radioligand employed in the assay, and the historical values for the KD of the ligand (obtained experimentally at Eurofins Panlabs, Inc.). The Hill coefficient (nH), which defines the slope of the competitive binding curve, was calculated using MathIQ^TM.

[1] = average of duplicate experiments

T1 sequence (P29274 whole entry): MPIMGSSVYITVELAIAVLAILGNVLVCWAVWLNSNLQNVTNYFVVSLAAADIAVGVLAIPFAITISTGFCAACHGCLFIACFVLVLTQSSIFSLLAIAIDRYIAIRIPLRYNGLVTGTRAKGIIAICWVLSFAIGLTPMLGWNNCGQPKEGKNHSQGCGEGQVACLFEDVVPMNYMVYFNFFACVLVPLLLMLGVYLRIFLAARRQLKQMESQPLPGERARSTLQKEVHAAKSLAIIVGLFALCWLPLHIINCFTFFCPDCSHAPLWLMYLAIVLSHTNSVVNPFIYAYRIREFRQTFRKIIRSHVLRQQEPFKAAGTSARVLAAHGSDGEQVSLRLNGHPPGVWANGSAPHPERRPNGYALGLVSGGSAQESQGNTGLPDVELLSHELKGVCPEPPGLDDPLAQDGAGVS

Question: Cc1cc(Cn2ncc3c(-c4cccc(C#N)c4F)nc(N)nc32)ccc1N [11o, 3-(6-Amino-1-(4-amino-3-methylbenzyl)-1H-pyrazolo[3,4-d]pyrimidin-4-yl)-2-fluorobenzonitrile] was tested. Which “nH (Hill coefficient), A2A” value (hA2A receptors) did it give?
Answer: 0.79

Question: What about the IC50 (hA2A receptors; [1]) of the same compound?
Answer: 24 nM

Question: What about the Ki (hA2A receptors; [1]) of the same compound?
Answer: 13.3 nM

Question: What about the “nH (Hill coefficient), A3” value (A3 receptors) of the same compound?
Answer: 0.44

Question: What about the IC50 (A3 receptors; [1]) of the same compound?
Answer: 1130 nM

Question: What about the Ki (A3 receptors; [1]) of the same compound?
Answer: 1050 nM
